Measurements as given in US20250313556A1, “CERTAIN CHEMICAL ENTITIES, COMPOSITIONS, AND METHODS” (MRJA THERAPEUTICS, INC., priority 2022, published 2025).

Biological target: c-KIT (Homo sapiens, UniProt P10721)
Experiment: c-KIT ADP-Glo biochemical assay
Protocol: The inhibitory activity against c-KIT was measured using ADP-Glo assay. The percent (%) inhibition at each concentration of compound is calculated based on and relative to the luminescence signal in the Max and Min control wells contained within each assay plate. The Max control wells contain enzyme and substrate as 0% inhibition, and the Min control wells only contain substrate without enzyme as 100% inhibition. The concentrations and % inhibition values for tested compounds are plotted and the concentration of compound required for 50% inhibition (IC50) is determined with a four-parameter logistic dose response equation. The ability of the compounds in Table 1 to inhibit c-KIT was determined.

[1] = comparison of prior art compounds (WO 2013/033167) with example 3 (C003)

Chain of c-KIT (P10721 26-976): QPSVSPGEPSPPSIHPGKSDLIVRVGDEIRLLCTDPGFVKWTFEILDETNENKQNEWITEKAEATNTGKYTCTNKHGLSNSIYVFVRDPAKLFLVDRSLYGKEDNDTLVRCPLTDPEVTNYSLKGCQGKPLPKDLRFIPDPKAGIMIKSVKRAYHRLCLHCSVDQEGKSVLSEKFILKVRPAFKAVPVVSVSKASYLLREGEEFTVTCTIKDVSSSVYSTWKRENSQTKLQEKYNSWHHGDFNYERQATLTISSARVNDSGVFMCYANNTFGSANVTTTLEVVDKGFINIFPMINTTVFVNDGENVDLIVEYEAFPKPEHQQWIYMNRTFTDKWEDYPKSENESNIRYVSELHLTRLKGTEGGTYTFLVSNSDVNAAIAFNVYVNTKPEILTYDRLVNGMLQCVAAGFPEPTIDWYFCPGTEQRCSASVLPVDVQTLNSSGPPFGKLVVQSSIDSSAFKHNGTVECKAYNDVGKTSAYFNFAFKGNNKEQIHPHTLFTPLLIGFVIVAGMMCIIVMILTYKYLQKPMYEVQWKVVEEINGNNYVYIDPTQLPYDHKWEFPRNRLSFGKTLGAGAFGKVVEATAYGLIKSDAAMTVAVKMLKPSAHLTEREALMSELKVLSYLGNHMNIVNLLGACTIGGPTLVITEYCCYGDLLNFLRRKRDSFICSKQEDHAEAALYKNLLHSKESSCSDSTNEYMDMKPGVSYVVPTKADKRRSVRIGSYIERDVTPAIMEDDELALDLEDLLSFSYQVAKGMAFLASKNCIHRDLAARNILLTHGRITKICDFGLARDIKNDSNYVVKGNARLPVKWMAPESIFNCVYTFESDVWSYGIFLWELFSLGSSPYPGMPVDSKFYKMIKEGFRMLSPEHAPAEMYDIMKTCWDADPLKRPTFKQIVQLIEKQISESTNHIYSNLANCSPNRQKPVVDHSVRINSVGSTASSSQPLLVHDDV

Compound	IC50 (class ranges)	IC50 [1]
Cc1c(F)cc(-c2noc(C3CC(F)(F)C3)n2)cc1NC(=O)c1cnc2ccc(N3CCN(C)CC3)cn12 [Compound C033, N-(5-(5-(3,3-difluorocyclobutyl)-1,2,4-oxadiazol-3-yl)-3-fluoro-2-methylphenyl)-6-(4-methylpiperazin-1-yl)imidazo[1,2-a]pyridine-3-carboxamide]	100 to 1000 nM	–
COC(=O)N1CC(c2nc(-c3cc(F)c(C)c(NC(=O)c4cnc5ccccn45)c3)no2)C1 [Compound C003, methyl 3-(3-(3-fluoro-5-(imidazo[1,2-a]pyridine-3-carboxamido)-4-methylphenyl)-1,2,4-oxadiazol-5-yl)azetidine-1-carboxylate]	≤ 100 nM	43 nM
CC(=O)N1CCN(c2ccc3ncc(C(=O)Nc4cc(-c5noc(C6CC(F)(F)C6)n5)cc(F)c4C)n3c2)CC1 [Compound C038, 6-(4-acetylpiperazin-1-yl)-N-(5-(5-(3,3-difluorocyclobutyl)-1,2,4-oxadiazol-3-yl)-3-fluoro-2-methylphenyl)imidazo[1,2-a]pyridine-3-carboxamide]	≤ 100 nM	–
COC(=O)N1CC(c2nc(-c3cc(F)c(C)c(NC(=O)c4cnc5cc(C)ccn45)c3)no2)C1 [Compound C017, methyl 3-(3-(3-fluoro-4-methyl-5-(7-methylimidazo[1,2-a]pyridine-3-carboxamido)phenyl)-1,2,4-oxadiazol-5-yl)azetidine-1-carboxylate]	100 to 1000 nM	–
COC(=O)N1CC(c2coc(-c3cc(F)c(C)c(NC(=O)c4cnc5ccccn45)c3)n2)C1 [Compound C047, methyl 3-(2-(3-fluoro-5-(imidazo[1,2-a]pyridine-3-carboxamido)-4-methylphenyl)oxazol-4-yl)azetidine-1-carboxylate]	100 to 1000 nM	–
Cc1c(F)cc(-c2noc(C3CC(F)(F)C3)n2)cc1NC(=O)c1cnc2ccc(N3CCNCC3)cn12 [Compound C025, N-(5-(5-(3,3-difluorocyclobutyl)-1,2,4-oxadiazol-3-yl)-3-fluoro-2-methylphenyl)-6-(piperazin-1-yl)imidazo[1,2-a]pyridine-3-carboxamide]	100 to 1000 nM	–
COC(=O)N1CC(c2nc(-c3cc(F)c(C)c(NC(=O)c4cnc5ccc(N6CCN(C(C)=O)CC6)cn45)c3)no2)C1 [Compound C036, methyl 3-(3-(3-(6-(4-acetylpiperazin-1-yl)imidazo[1,2-a]pyridine-3-carboxamido)-5-fluoro-4-methylphenyl)-1,2,4-oxadiazol-5-yl)azetidine-1-carboxylate]	≤ 100 nM	–
COC(=O)N1CCC[C@H](c2nc(-c3cc(F)c(C)c(NC(=O)c4cnc5ccccn45)c3F)no2)C1 [Compound C056, methyl (S)-3-(3-(2,5-difluoro-3-(imidazo[1,2-a]pyridine-3-carboxamido)-4-methylphenyl)-1,2,4-oxadiazol-5-yl)piperidine-1-carboxylate]	100 to 1000 nM	–
COC(=O)N1CC(c2nc(-c3ccc(C)c(NC(=O)c4cnc5ccccn45)c3)no2)C1 [methyl 3-(3-(3-(imidazo[1,2-a]pyridine-3-carboxamido)-4-methylphenyl)-1,2,4-oxadiazol-5-yl)azetidine-1-carboxylate, reference compound]	–	172 nM
Cc1c(F)cc(-c2noc([C@H]3C[C@@H]3F)n2)cc1NC(=O)c1cnc2ccc(N3CCOCC3)cn12 (racemic) [Compound C008, N-(3-fluoro-5-(5-((1R,2S)-2-fluorocyclopropyl)-1,2,4-oxadiazol-3-yl)-2-methylphenyl)-6-morpholinoimidazo[1,2-a]pyridine-3-carboxamide]	1000 to 20000 nM	–
Cc1c(F)cc(-c2noc([C@H]3C[C@@H]3F)n2)cc1NC(=O)c1cnc2ccc(N3CCN(C)CC3)cn12 (racemic) [Compound C034, N-(3-fluoro-5-(5-((1R,2S)-2-fluorocyclopropyl)-1,2,4-oxadiazol-3-yl)-2-methylphenyl)-6-(4-methylpiperazin-1-yl)imidazo[1,2-a]pyridine-3-carboxamide]	100 to 1000 nM	–
Cc1c(F)cc(-c2noc([C@@H]3C[C@H]3F)n2)cc1NC(=O)c1cnc2cc(N3CCOCC3)ccn12 [Compound C050, N-(3-fluoro-5-(5-((1S,2R)-2-fluorocyclopropyl)-1,2,4-oxadiazol-3-yl)-2-methylphenyl)-7-morpholinoimidazo[1,2-a]pyridine-3-carboxamide]	100 to 1000 nM	–
COC(=O)N1CC(c2nc(-c3cc(F)c(C)c(NC(=O)c4cnc5cc(Cl)ccn45)c3)no2)C1 [Compound C016, methyl 3-(3-(3-(7-chloroimidazo[1,2-a]pyridine-3-carboxamido)-5-fluoro-4-methylphenyl)-1,2,4-oxadiazol-5-yl)azetidine-1-carboxylate]	100 to 1000 nM	–
COC(=O)N1CC[C@@H](c2nc(-c3cc(F)c(C)c(NC(=O)c4cnc5ccccn45)c3F)no2)C1 [Compound C053, methyl (R)-3-(3-(2,5-difluoro-3-(imidazo[1,2-a]pyridine-3-carboxamido)-4-methylphenyl)-1,2,4-oxadiazol-5-yl)pyrrolidine-1-carboxylate]	1000 to 20000 nM	–
Cc1c(F)cc(-c2noc([C@H]3C[C@@H]3F)n2)cc1NC(=O)c1cnc2ccccn12 (racemic) [Compound C002, N-(3-fluoro-5-(5-((1R,2S)-2-fluorocyclopropyl)-1,2,4-oxadiazol-3-yl)-2-methylphenyl)imidazo[1,2-a]pyridine-3-carboxamide]	1000 to 20000 nM	–
COC(=O)N1CC(c2nc(-c3cc(F)c(C)c(NC(=O)c4cnc5cc(F)ccn45)c3)no2)C1 [Compound C024, methyl 3-(3-(3-fluoro-5-(7-fluoroimidazo[1,2-a]pyridine-3-carboxamido)-4-methylphenyl)-1,2,4-oxadiazol-5-yl)azetidine-1-carboxylate]	100 to 1000 nM	–
COC(=O)N1CC(c2noc(-c3cc(F)c(C)c(NC(=O)c4cnc5ccccn45)c3)n2)C1 [Compound C037, methyl 3-(5-(3-fluoro-5-(imidazo[1,2-a]pyridine-3-carboxamido)-4-methylphenyl)-1,2,4-oxadiazol-3-yl)azetidine-1-carboxylate]	100 to 1000 nM	–
COC(=O)N1CC(c2nc(-c3cc(F)c(C)c(NC(=O)c4cnc5ccccn45)c3)co2)C1 [Compound C045, methyl 3-(4-(3-fluoro-5-(imidazo[1,2-a]pyridine-3-carboxamido)-4-methylphenyl)oxazol-2-yl)azetidine-1-carboxylate]	100 to 1000 nM	–
CNC(=O)N1CC(c2nc(-c3cc(F)c(C)c(NC(=O)c4cnc5ccccn45)c3)no2)C1 [Compound C032, N-(3-fluoro-2-methyl-5-(5-(1-(methylcarbamoyl)azetidin-3-yl)-1,2,4-oxadiazol-3-yl)phenyl)imidazo[1,2-a]pyridine-3-carboxamide]	1000 to 20000 nM	–
Cc1c(F)cc(-c2noc(C3CC(F)(F)C3)n2)cc1NC(=O)c1cnc2cc(N3CCN(C)CC3)ccn12 [Compound C011, N-(5-(5-(3,3-difluorocyclobutyl)-1,2,4-oxadiazol-3-yl)-3-fluoro-2-methylphenyl)-7-(4-methylpiperazin-1-yl)imidazo[1,2-a]pyridine-3-carboxamide]	100 to 1000 nM	–
CCOC(=O)N1CC(c2nc(-c3cc(F)c(C)c(NC(=O)c4cnc5ccccn45)c3)no2)C1 [Compound C023, ethyl 3-(3-(3-fluoro-5-(imidazo[1,2-a]pyridine-3-carboxamido)-4-methylphenyl)-1,2,4-oxadiazol-5-yl)azetidine-1-carboxylate]	100 to 1000 nM	–
COC(=O)N1CC(c2nc(-c3cc(F)c(C)c(NC(=O)c4cnc5cc(C(N)=O)ccn45)c3)no2)C1 [Compound C043, methyl 3-(3-(3-(7-carbamoylimidazo[1,2-a]pyridine-3-carboxamido)-5-fluoro-4-methylphenyl)-1,2,4-oxadiazol-5-yl)azetidine-1-carboxylate]	≤ 100 nM	–
Cc1c(F)cc(-c2noc(C3CN(C(=O)OC4CC4)C3)n2)cc1NC(=O)c1cnc2ccccn12 [Compound C031, cyclopropyl 3-(3-(3-fluoro-5-(imidazo[1,2-a]pyridine-3-carboxamido)-4-methylphenyl)-1,2,4-oxadiazol-5-yl)azetidine-1-carboxylate]	1000 to 20000 nM	–
COC(=O)N1CC(c2ncc(-c3cc(F)c(C)c(NC(=O)c4cnc5ccccn45)c3)o2)C1 [Compound C046, methyl 3-(5-(3-fluoro-5-(imidazo[1,2-a]pyridine-3-carboxamido)-4-methylphenyl)oxazol-2-yl)azetidine-1-carboxylate]	1000 to 20000 nM	–
COC(=O)N1CC(c2nc(-c3cc(F)c(C)c(NC(=O)c4cnc5cc(N6CCOCC6)ccn45)c3)no2)C1 [Compound C015, methyl 3-(3-(3-fluoro-4-methyl-5-(7-morpholinoimidazo[1,2-a]pyridine-3-carboxamido)phenyl)-1,2,4-oxadiazol-5-yl)azetidine-1-carboxylate]	≤ 100 nM	–
COC(=O)N1CC(c2nc(-c3cc(F)c(C)c(NC(=O)c4cnc5ccc(N6CCNCC6)cn45)c3)no2)C1 [Compound C020, methyl 3-(3-(3-fluoro-4-methyl-5-(6-(piperazin-1-yl)imidazo[1,2-a]pyridine-3-carboxamido)phenyl)-1,2,4-oxadiazol-5-yl)azetidine-1-carboxylate]	1000 to 20000 nM	–
COC(=O)N1CCC[C@@H](c2nc(-c3cc(F)c(C)c(NC(=O)c4cnc5ccccn45)c3F)no2)C1 [Compound C054, methyl (R)-3-(3-(2,5-difluoro-3-(imidazo[1,2-a]pyridine-3-carboxamido)-4-methylphenyl)-1,2,4-oxadiazol-5-yl)piperidine-1-carboxylate]	100 to 1000 nM	–
COC(=O)N1CC(c2nc(-c3cc(F)c(C)c(NC(=O)c4cnn5ccccc45)c3)no2)C1 [Compound C006, methyl 3-(3-(3-fluoro-4-methyl-5-(pyrazolo[1,5-a]pyridine-3-carboxamido)phenyl)-1,2,4-oxadiazol-5-yl)azetidine-1-carboxylate]	100 to 1000 nM	–
